Assay results from ChEMBL document CHEMBL1201862, “PubChem BioAssay data set” (2004).
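48-hour exposure; five concentrations; linearly interpolated endpoints. GI50 is the concentration that inhibits growth by half.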 The source made the active and inactive calls. Rule as the data show it: active = GI50 up to about 1.1 µM and inactive = higher.

Key:
Assay in all cases: NCI anticancer screen, dose series, 48 h
[1] = tested on: SNB-78
[2] = tested on: LXFL 529
[3] = tested on: M19-MEL
[4] = tested on: DLD-1
[5] = tested on: DMS-273
[6] = tested on: RXF 631
[7] = tested on: NCI/ADR-RES
[8] = tested on: MDA-MB-231
[9] = tested on: MCF7

Row | Compound | GI50 [1] | GI50 [2] | GI50 [3] | GI50 [4] | GI50 [5] | GI50 [6] | GI50 [7] | GI50 [8] | GI50 [9]
1 | CCOC(=O)/C(=C/c1ccc(C(=O)OC)cc1)N(CC)CC | 24.4 µM (inactive) | 50.6 µM (inactive) | 51.1 µM (inactive) | – | – | – | – | – | –
2 | CCCCNS(=O)(=O)c1ccc(-c2ccc3c(c2)-c2ccc(S(=O)(=O)NCCCC)cc2S3(=O)=O)cc1 | 12.4 µM (inactive) | 13.2 µM (inactive) | 21.5 µM (inactive) | 43.6 µM (inactive) | 20 µM (inactive) | – | – | – | –
3 | CCN(CC)C(=O)c1cccc2c(OC)ccc(OC)c12 | – | > 100 µM (inactive) | > 100 µM (inactive) | > 100 µM (inactive) | > 100 µM (inactive) | – | – | – | –
4 | O=C(CCc1cc(-c2ccccc2)[nH]c(=S)n1)Nc1ccccc1[N+](=O)[O-] | > 100 µM (inactive) | > 100 µM (inactive) | > 100 µM (inactive) | – | > 100 µM (inactive) | > 100 µM (inactive) | – | – | –
5 | [N-]=[N+]=NCC(O)Cn1cnc2c(NC(=O)c3ccccc3)ncnc21 (stereo unspecified) | > 100 µM (inactive) | > 100 µM (inactive) | > 100 µM (inactive) | > 100 µM (inactive) | 64.4 µM (inactive) | – | – | – | –
6 | c1ccc2c(OCCSCCCCCCCCCCSCCOc3cccc4ccccc34)cccc2c1 | > 100 µM (inactive) | – | > 100 µM (inactive) | > 100 µM (inactive) | > 100 µM (inactive) | – | – | – | –
7 | Nc1ncnc2c1ncn2C1OC(CSC(F)(F)F)C(O)C1O (stereo unspecified) | > 100 µM (inactive) | > 100 µM (inactive) | > 100 µM (inactive) | > 100 µM (inactive) | > 100 µM (inactive) | – | – | – | –
8 | COC(=O)[C@@](C)(COC(=O)C(C)(C)C)NC(=O)OC(C)(C)C | – | – | – | – | – | – | > 100 µM (inactive) | > 100 µM (inactive) | > 100 µM (inactive)
9 | Cc1ccc(C(C2C(=O)N(C)C(=O)N(C)C2=O)C(F)(F)C(=O)N(C)C)cc1 (stereo unspecified) | – | – | – | – | – | – | > 100 µM (inactive) | > 100 µM (inactive) | > 100 µM (inactive)
10 | O=C(CC(=O)c1cccc([N+](=O)[O-])c1)C(=O)Nc1ccccc1 | > 100 µM (inactive) | > 100 µM (inactive) | > 100 µM (inactive) | > 100 µM (inactive) | > 100 µM (inactive) | > 100 µM (inactive) | – | – | –
11 | NC1CC(=O)c2c1sc(Cl)c2Cl (stereo unspecified) | – | – | – | – | – | – | > 100 µM (inactive) | > 100 µM (inactive) | > 100 µM (inactive)
12 | COC(=O)[C@@]12CC[C@]1(C(=O)OC)C1C(C)=CC(=O)O[C@@]12C (stereo partly specified) | – | – | – | – | – | – | > 100 µM (inactive) | > 100 µM (inactive) | > 100 µM (inactive)
13 | COc1ccc(C2NC(=S)Nc3c2c(=O)oc2c3ccc3ccccc32)cc1 (stereo unspecified) | – | – | – | – | – | – | 81.5 µM (inactive) | 57.8 µM (inactive) | > 100 µM (inactive)
14 | O=C(Sc1n[nH]c(=O)[nH]c1=O)c1cccc2nc3ccccc3nc12 | – | – | – | – | – | – | > 100 µM (inactive) | > 100 µM (inactive) | 7.67 µM (inactive)
15 | COc1ccc(/C=N/NS(=O)(=O)c2ccc(/C=C3\NC(=O)N(C)C3=O)cc2)cc1 | – | – | – | – | – | – | > 100 µM (inactive) | 38.8 µM (inactive) | 40.9 µM (inactive)
16 | CSCCC(NCc1c(O)ccc2ccc(=O)oc12)C(=O)O (stereo unspecified) | – | – | – | – | – | – | > 100 µM (inactive) | > 100 µM (inactive) | > 100 µM (inactive)
17 | COc1ccc2cc3n(c2c1)CCc1cc(OC)c(OC)cc1-3 | > 100 µM (inactive) | > 100 µM (inactive) | > 100 µM (inactive) | > 100 µM (inactive) | > 100 µM (inactive) | > 100 µM (inactive) | – | – | –
18 | O=C1NC(=O)C(C(CC(=O)c2ccc([N+](=O)[O-])cc2)c2ccccc2)C(=O)N1 (stereo unspecified) | – | – | – | – | – | – | > 100 µM (inactive) | > 100 µM (inactive) | 13.5 µM (inactive)
19 | CCc1n[nH]c(=O)n1/N=C/c1ccccc1Cl | – | – | – | – | – | – | > 100 µM (inactive) | > 100 µM (inactive) | > 100 µM (inactive)
20 | Nc1nc2sc3ccccc3c(=O)n2n1 | > 100 µM (inactive) | > 100 µM (inactive) | – | > 100 µM (inactive) | > 100 µM (inactive) | – | – | – | –
21 | Cc1cc(O)nc(NNC(C#N)c2ccc(N(C)C)cc2)n1 (stereo unspecified) | > 100 µM (inactive) | – | > 100 µM (inactive) | > 100 µM (inactive) | > 100 µM (inactive) | – | – | – | –
22 | CC1(C)NC(C(=O)c2ccccc2)=[N+]([O-])C1(O)c1ccccc1 (stereo unspecified) | – | – | – | – | – | – | > 100 µM (inactive) | > 100 µM (inactive) | > 100 µM (inactive)
23 | C[C@@H](NC1CCCC[C@H]1O)c1ccccc1 (stereo partly specified) | > 100 µM (inactive) | – | > 100 µM (inactive) | > 100 µM (inactive) | > 100 µM (inactive) | – | – | – | –
24 | COc1cccc(-c2cc(O)c3cc4c(cc3n2)OCO4)c1 | 0.195 µM (active) | 0.0598 µM (active) | 0.128 µM (active) | 0.126 µM (active) | 0.147 µM (active) | 0.442 µM (active) | – | – | –
25 | CCCC(=O)Nc1cc(/C=C/C(=O)N2CC(CCl)c3ccc(N)cc32)n(C)c1 (stereo unspecified) | – | – | – | – | – | – | 0.447 µM (active) | 0.275 µM (active) | 0.122 µM (active)
26 | CCN(CC)CCOc1ccc(C(O)(Cc2ccc(OC)cc2)c2ccccc2)cc1 (stereo unspecified) | 24.5 µM (inactive) | 17 µM (inactive) | 15.4 µM (inactive) | 18.3 µM (inactive) | 14.3 µM (inactive) | – | – | – | –
27 | C/C(=C\Cc1cc(O)ccc1O)CCc1c(C)c(O)c(O)c(C=O)c1C [PANICEIN C] | – | 9.64 µM (inactive) | 17.7 µM (inactive) | 21.1 µM (inactive) | 27.5 µM (inactive) | – | – | – | –
